One block for each molecule: values may come before it.
System: 361931-004-R-J1-PDC multicell spheroid viability
Assay: Anticancer human tumor 361931-004-R-J1-PDC patient-derived colon adenocarcinoma cell line growth inhibition [PI3K]
Conditions: for IC50: curve of first compound; for viability, T/C: stronger effect = lower value
Procedure, shortened: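 High-throughput combination screen: PI3K inhibitors crossed with targeted small molecules on complex spheroids of tumor cells, HUVEC and MSCs at 37 degrees C, 5% CO2. Top concentration was at or near clinical Cmax (otherwise 10 microM), with half-log decrements.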

[1] = second compound 0.0316 µM, first compound 0.0316 µM
[2] = second compound 0.0316 µM, first compound 0.1 µM
[3] = second compound 0.0316 µM, first compound 0.316 µM
[4] = second compound 0.0316 µM, first compound 1 µM
[5] = second compound 0.0316 µM, first compound 3.16 µM
[6] = second compound 0.0316 µM, first compound 10 µM
[7] = second compound 0.1 µM, first compound 0.0316 µM
[8] = second compound 0.1 µM, first compound 0.1 µM
[9] = second compound 0.1 µM, first compound 0.316 µM
[10] = second compound 0.1 µM, first compound 1 µM
[11] = second compound 0.1 µM, first compound 3.16 µM
[12] = second compound 0.1 µM, first compound 10 µM
[13] = second compound 0.316 µM, first compound 0.0316 µM
[14] = second compound 0.316 µM, first compound 0.1 µM
[15] = second compound 0.316 µM, first compound 0.316 µM
[16] = second compound 0.316 µM, first compound 1 µM
[17] = second compound 0.316 µM, first compound 3.16 µM
[18] = second compound 0.316 µM, first compound 10 µM
[19] = second compound 1 µM, first compound 0.0316 µM
[20] = second compound 1 µM, first compound 0.1 µM
[21] = second compound 1 µM, first compound 0.316 µM
[22] = second compound 1 µM, first compound 1 µM
[23] = second compound 1 µM, first compound 3.16 µM
[24] = second compound 1 µM, first compound 10 µM
[25] = second compound 3.16 µM, first compound 0.0316 µM
[26] = second compound 3.16 µM, first compound 0.1 µM
[27] = second compound 3.16 µM, first compound 0.316 µM
[28] = second compound 3.16 µM, first compound 1 µM
[29] = second compound 3.16 µM, first compound 3.16 µM
[30] = second compound 3.16 µM, first compound 10 µM
[31] = second compound 10 µM, first compound 0.0316 µM
[32] = second compound 10 µM, first compound 0.1 µM
[33] = second compound 10 µM, first compound 0.316 µM
[34] = second compound 10 µM, first compound 1 µM
[35] = second compound 10 µM, first compound 3.16 µM
[36] = second compound 10 µM, first compound 10 µM
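Note: spheroids exposed to agents for seven days before readout.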

IC50 (second compound 0.0316 µM): > 10 µM
IC50 (second compound 0.1 µM): > 10 µM
IC50 (second compound 0.316 µM): > 10 µM
IC50 (second compound 1 µM): > 10 µM
IC50 (second compound 3.16 µM): > 10 µM
IC50 (second compound 10 µM): > 10 µM
SMILES: C#Cc1c(F)ccc2cc(O)cc(-c3ncc4c(N5CC6CCC(C5)N6)nc(OCC56CCCN5CC(F)C6)nc4c3F)c12 (stereo not drawn) + CC(Nc1ncnc2nc[nH]c12)c1cc2cccc(Cl)c2c(=O)n1-c1ccccc1
viability, T/C [1]: 98.8%
viability, T/C [2]: 105%
viability, T/C [3]: 105%
viability, T/C [4]: 102%
viability, T/C [5]: 98.9%
viability, T/C [6]: 95.1%
viability, T/C [7]: 105%
viability, T/C [8]: 103%
viability, T/C [9]: 96.8%
viability, T/C [10]: 100%
viability, T/C [11]: 104%
viability, T/C [12]: 93%
viability, T/C [13]: 106%
viability, T/C [14]: 99.7%
viability, T/C [15]: 105%
viability, T/C [16]: 100%
viability, T/C [17]: 102%
viability, T/C [18]: 93.3%
viability, T/C [19]: 97.7%
viability, T/C [20]: 98.6%
viability, T/C [21]: 100%
viability, T/C [22]: 95.2%
viability, T/C [23]: 104%
viability, T/C [24]: 84.4%
viability, T/C [25]: 104%
viability, T/C [26]: 107%
viability, T/C [27]: 103%
viability, T/C [28]: 106%
viability, T/C [29]: 107%
viability, T/C [30]: 81.9%
viability, T/C [31]: 104%
viability, T/C [32]: 99.8%
viability, T/C [33]: 91.9%
viability, T/C [34]: 91%
viability, T/C [35]: 90%
viability, T/C [36]: 79%

IC50 (second compound 0.0316 µM): 6.27 µM
IC50 (second compound 0.1 µM): 5.92 µM
IC50 (second compound 0.316 µM): 5.95 µM
IC50 (second compound 1 µM): 5.58 µM
IC50 (second compound 3.16 µM): 5.2 µM
IC50 (second compound 10 µM): 4.73 µM
SMILES: CC1(C)CCC(Nc2ncc(C(F)(F)F)c(-c3c[nH]c4c(P(C)(C)=O)c(C#N)ccc34)n2)CN1 (stereo not drawn) + CC(Nc1ncnc2nc[nH]c12)c1cc2cccc(Cl)c2c(=O)n1-c1ccccc1
viability, T/C [1]: 106%
viability, T/C [2]: 108%
viability, T/C [3]: 104%
viability, T/C [4]: 101%
viability, T/C [5]: 103%
viability, T/C [6]: 13.7%
viability, T/C [7]: 122%
viability, T/C [8]: 103%
viability, T/C [9]: 96%
viability, T/C [10]: 101%
viability, T/C [11]: 93.4%
viability, T/C [12]: 14.5%
viability, T/C [13]: 108%
viability, T/C [14]: 106%
viability, T/C [15]: 99.4%
viability, T/C [16]: 98%
viability, T/C [17]: 95.8%
viability, T/C [18]: 12.4%
viability, T/C [19]: 110%
viability, T/C [20]: 101%
viability, T/C [21]: 98.8%
viability, T/C [22]: 98.4%
viability, T/C [23]: 86.9%
viability, T/C [24]: 12.8%
viability, T/C [25]: 105%
viability, T/C [26]: 94.9%
viability, T/C [27]: 95.8%
viability, T/C [28]: 94.1%
viability, T/C [29]: 80.6%
viability, T/C [30]: 10.6%
viability, T/C [31]: 93.1%
viability, T/C [32]: 90.8%
viability, T/C [33]: 88.9%
viability, T/C [34]: 88%
viability, T/C [35]: 74%
viability, T/C [36]: 5.6%

IC50 (second compound 0.00316 µM): > 10 µM
IC50 (second compound 0.01 µM): > 10 µM
IC50 (second compound 0.0316 µM): > 10 µM
IC50 (second compound 0.1 µM): > 10 µM
IC50 (second compound 0.316 µM): 3.98 µM
IC50 (second compound 1 µM): < 0.0316 µM
SMILES: CNC(=O)c1ccc(N2C(=S)N(c3ccc(C#N)c(C(F)(F)F)c3)C(=O)C2(C)C)cc1F + COc1c(OCCCN2CCOCC2)ccc2c3n(c(=NC(=O)c4cnc(N)nc4)nc12)CCN3
viability, T/C (second compound 0.00316 µM, first compound 0.0316 µM): 103%
viability, T/C (second compound 0.00316 µM, first compound 0.1 µM): 102%
viability, T/C (second compound 0.00316 µM, first compound 0.316 µM): 97.6%
viability, T/C (second compound 0.00316 µM, first compound 1 µM): 103%
viability, T/C (second compound 0.00316 µM, first compound 3.16 µM): 105%
viability, T/C (second compound 0.00316 µM, first compound 10 µM): 88.5%
viability, T/C (second compound 0.01 µM, first compound 0.0316 µM): 95.5%
viability, T/C (second compound 0.01 µM, first compound 0.1 µM): 101%
viability, T/C (second compound 0.01 µM, first compound 0.316 µM): 98.8%
viability, T/C (second compound 0.01 µM, first compound 1 µM): 98.2%
viability, T/C (second compound 0.01 µM, first compound 3.16 µM): 98.7%
viability, T/C (second compound 0.01 µM, first compound 10 µM): 86.2%
viability, T/C [1]: 83.6%
viability, T/C [2]: 92.3%
viability, T/C [3]: 91.7%
viability, T/C [4]: 90%
viability, T/C [5]: 95.7%
viability, T/C [6]: 88.4%
viability, T/C [7]: 81.1%
viability, T/C [8]: 82.5%
viability, T/C [9]: 76.1%
viability, T/C [10]: 81.5%
viability, T/C [11]: 86.1%
viability, T/C [12]: 65.8%
viability, T/C [13]: 56.2%
viability, T/C [14]: 53%
viability, T/C [15]: 54.1%
viability, T/C [16]: 57.5%
viability, T/C [17]: 52.8%
viability, T/C [18]: 36.7%
viability, T/C [19]: 28.7%
viability, T/C [20]: 22.2%
viability, T/C [21]: 22.7%
viability, T/C [22]: 26.8%
viability, T/C [23]: 26.5%
viability, T/C [24]: 17.1%

IC50 (second compound 0.00316 µM): > 3 µM
IC50 (second compound 0.01 µM): 1.95 µM
IC50 (second compound 0.0316 µM): 0.718 µM
IC50 (second compound 0.1 µM): 0.156 µM
IC50 (second compound 0.316 µM): 0.0114 µM
IC50 (second compound 1 µM): < 0.00949 µM
SMILES: Cn1cnc2c(F)c(Nc3ccc(Br)cc3Cl)c(C(=O)NOCCO)cc21 + COc1c(OCCCN2CCOCC2)ccc2c3n(c(=NC(=O)c4cnc(N)nc4)nc12)CCN3
viability, T/C (second compound 0.00316 µM, first compound 0.00949 µM): 104%
viability, T/C (second compound 0.00316 µM, first compound 0.03 µM): 99.9%
viability, T/C (second compound 0.00316 µM, first compound 0.0949 µM): 92.1%
viability, T/C (second compound 0.00316 µM, first compound 0.3 µM): 86.6%
viability, T/C (second compound 0.00316 µM, first compound 0.949 µM): 75.6%
viability, T/C (second compound 0.00316 µM, first compound 3 µM): 57.5%
viability, T/C (second compound 0.01 µM, first compound 0.00949 µM): 107%
viability, T/C (second compound 0.01 µM, first compound 0.03 µM): 101%
viability, T/C (second compound 0.01 µM, first compound 0.0949 µM): 88.6%
viability, T/C (second compound 0.01 µM, first compound 0.3 µM): 85.6%
viability, T/C (second compound 0.01 µM, first compound 0.949 µM): 69%
viability, T/C (second compound 0.01 µM, first compound 3 µM): 38.7%
viability, T/C (second compound 0.0316 µM, first compound 0.00949 µM): 102%
viability, T/C (second compound 0.0316 µM, first compound 0.03 µM): 93%
viability, T/C (second compound 0.0316 µM, first compound 0.0949 µM): 81%
viability, T/C (second compound 0.0316 µM, first compound 0.3 µM): 67.2%
viability, T/C (second compound 0.0316 µM, first compound 0.949 µM): 45.3%
viability, T/C (second compound 0.0316 µM, first compound 3 µM): 16%
viability, T/C (second compound 0.1 µM, first compound 0.00949 µM): 81.5%
viability, T/C (second compound 0.1 µM, first compound 0.03 µM): 69.3%
viability, T/C (second compound 0.1 µM, first compound 0.0949 µM): 55.4%
viability, T/C (second compound 0.1 µM, first compound 0.3 µM): 43.1%
viability, T/C (second compound 0.1 µM, first compound 0.949 µM): 23.9%
viability, T/C (second compound 0.1 µM, first compound 3 µM): 3.88%
viability, T/C (second compound 0.316 µM, first compound 0.00949 µM): 50.8%
viability, T/C (second compound 0.316 µM, first compound 0.03 µM): 44.9%
viability, T/C (second compound 0.316 µM, first compound 0.0949 µM): 28.9%
viability, T/C (second compound 0.316 µM, first compound 0.3 µM): 18%
viability, T/C (second compound 0.316 µM, first compound 0.949 µM): 4.2%
viability, T/C (second compound 0.316 µM, first compound 3 µM): 1.79%
viability, T/C (second compound 1 µM, first compound 0.00949 µM): 21.7%
viability, T/C (second compound 1 µM, first compound 0.03 µM): 17.9%
viability, T/C (second compound 1 µM, first compound 0.0949 µM): 10.1%
viability, T/C (second compound 1 µM, first compound 0.3 µM): 3.9%
viability, T/C (second compound 1 µM, first compound 0.949 µM): 2.04%
viability, T/C (second compound 1 µM, first compound 3 µM): 1.34%
